Reference: patent US20250090441A1, “ANTI-CARIES PEPTIDES WITH ANTIMICROBIAL AND REMINERALIZING PROPERTIES AND METHODS THEREOF” (THE UNIVERSITY OF HONG KONG, priority 2023, published 2025)
Where a SMILES comes first, the peptide text is derived from it.

Experiments:
[1] = Effect on hard tissue, biofilm remineralization cycling model (micro-CT, FTIR); conditions: carious dentine, 160 μM GAPI
Description: Dentine slices, 2 mm thick, were cut from sound extracted third molars. Ultra-fine 4000-grit sandpaper was used to polish these slices. Slices with defects were eliminated based on a stereomicroscope observation. A total of forty dentine slices were selected. Each slice was separated into two blocks and assigned to two groups. Nail varnish was used to coat half of the blocks as an internal control. S. mutans American Type Culture Collection 35668 was utilized in the present study. All the dentine blocks were placed into S. mutans culture (10^8 cells/mL) in a brain-heart infusion (BHI) broth containing 5% glucose to generate artificial caries. After a 3-day anaerobic culture at 37° C., the depth of the caries lesion surface was around 96 μm, which was observed using micro-computed tomography (micro-CT).
Two blocks from the same slice were assigned to the GAPI group (160 μM GAPI) and control group (deionized water) separately. All the blocks underwent a biochemical model involving chemical remineralization and an S. mutans biofilm challenge for seven days. The remineralization solution (pH 7.0) consisted of 1.5 mm calcium chloride, 150 mm potassium chloride, 0.9 mm potassium dihydrogen phosphate, and 20 mm 4-(2-hydroxyethyl)-1-piperazineethanesulfonic acid. The cycling process included 8 h of immersion in the remineralization solution and 16 h of immersion in an S. mutans biofilm medium.
Micro-CT (SkyScan 1272, Antwerp, Belgium) was employed to evaluate the lesion depths and mineral losses (n=8 for each group). The X-ray source parameters were set at an 80 kV voltage and 100 μA current with an image pixel size of 10 μm. Moreover, two standard mineral cylindrical phantoms (Bruker, Kontich, Belgium) with mineral density values (MDVs, gHApcm^−3) of 0.25 gHApcm^−3 and 0.75 gHApcm^−3 were scanned to calibrate the blocks' greyscales. The NRecon reconstruction software (Version 1.7.4.6, SkyScan, Antwerp, Belgium) was utilized to reconstruct the scanning images. The CTAn data analysis software (CTAn version 1.20.3.0, Skyscan NV, Kontich, Belgium) was employed to analyze the cross-sectional images. The lesion depths were measured, and the images' greyscale values were calibrated. Subsequently, the demineralized and control areas were calculated into the MDV for each block. The mineral loss was determined as the difference between the MDV of the control and the MDV of the demineralized area (Niu et al., 2022).
FTIR (Spectrum Two, PerkinElmer, Waltham, MA, USA) was employed to examine the changes in the dentin's chemical structures (n=8 for each group). […] The ratio of the HPO4^2− to amide I absorbance area represented the degree of demineralization in the dentin.

[2] = Stability in human saliva (HPLC); type: in vitro ADME
Description: The stability of peptides in human saliva was investigated by testing the remaining peptide concentration via HPLC system (Waters Pacific Pte Ltd, Singapore). The saliva with peptides was mixed and incubated for 0, 15, 30, 45 and 60 min. The test was processed following a previous experimental protocol (Huang et al. 2016).

[3] = system: Human gingival fibroblast (HGF-1) cells; assay: Biocompatibility, cytotoxicity by Cell Counting Kit-8 Assay; type: cell-based
Description: The biocompatibility of GAPI was evaluated by cytotoxicity assay using Cell Counting Kit-8 Assay (CCK-8, Apexbio, MA, USA) (Zhang et al. 2019). Human gingival fibroblast (HGF-1, Otwo Biotech Inc., China) cells (1×10^5/mL) were cultured and treated with GAPI. The cells cultured with the only medium were negative controls. The optical density values indicating the number of viable cells was measured at 450 nm after 24 h of incubation.

[4] = 7 days cycling, micro-CT, n = 8

Question: For `CC(C)[C@@H]1NC(=O)[C@H](CCCN=C(N)N)NC(=O)[C@H](Cc2ccccc2)NC(=O)[C@@H](NC(=O)[C@H](Cc2c[nH]c3ccccc23)NC(=O)[C@H](CCCN=C(N)N)NC(=O)[C@H](CCCN=C(N)N)NC(=O)c2cc(O)c(O)c(O)c2)CSSC[C@@H](C(=O)N[C@@H](CCCN=C(N)N)C(=O)O)NC(=O)[C@H](CCCCN)NC(=O)[C@H](CCCN=C(N)N)NC(=O)[C@H](Cc2ccc(O)cc2)NC(=O)[C@@H]2CSSC[C@H](NC1=O)C(=O)N[C@@H](Cc1ccc(O)cc1)C(=O)N[C@@H](CCCN=C(N)N)C(=O)NCC(=O)N[C@@H](Cc1ccccc1)C(=O)N2` [GAPI, Gallic-Acid-Polyphemusin-I] (HELM PEPTIDE1{[O=C(c1cc(O)c(O)c(O)c1)[*:2]].R.R.W.C.F.R.V.C.Y.R.G.F.C.Y.R.K.C.R}$PEPTIDE1,PEPTIDE1,5:R3-18:R3|PEPTIDE1,PEPTIDE1,9:R3-14:R3$$$V2.0), which lesion depths [1] is on record?
Answer: Its lesion depths is 151±18 μm.

Question: And the “Hydrogen phosphate-to-amide I ratio” value ([1]; 7 days cycling, FTIR, n = 8)?
Answer: The value was 2.92±0.82.

Question: What about the Lesion depth [1, 4] of the same compound?
Answer: The Lesion depth was 151 ± 18 μm.

Question: And the Mineral loss [1, 4]?
Answer: The Mineral loss was 0.91±0.07 gHAcm^−3.

Question: And the “stable in saliva (time)” value [2]?
Answer: Its value is “at least 60 min”.

Question: And the remaining at 0.25 h ([2]; human, 15 min, read-out: remaining percentage after incubation in human saliva)?
Answer: Its remaining at 0.25 h is 98.9%.

Question: What about the remaining at 0.5 h ([2]; human, 30 min, read-out: remaining percentage after incubation in human saliva) of the same compound?
Answer: Its remaining at 0.5 h is 98.6%.

Question: What about the remaining at 0.75 h ([2]; human, 45 min, read-out: remaining percentage after incubation in human saliva) of the same compound?
Answer: Its remaining at 0.75 h is 96.8%.

Question: What about the remaining at 1 h ([2]; human, 60 min, read-out: remaining percentage after incubation in human saliva) of the same compound?
Answer: The remaining at 1 h was 94.4%.

Question: What about the “optical density values (450 nm, viable cells) versus negative control” value ([3]; 80, 160, 320 and 640 μM, HGF-1 cells, 24 h) of the same compound?
Answer: The value was “no significant difference”.

Question: And the “cytotoxicity to HGF-1 cells” value ([3]; CCK-8, 24 h)?
Answer: Its value is “low cytotoxicity”.
